Results from ChEMBL document CHEMBL1201862, “PubChem BioAssay data set” (2004).
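96-well plates; 48 h exposure; 5 concentrations. Endpoints by linear interpolation between flanking doses. Not reached: highest tested concentration assigned. GI50: concentration for 50% inhibition of growth.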 Activity calls are given as the source filed them. No stated cut-off is given here; in the data, active = GI50 up to about 1.1 µM and inactive = higher.

Experiments:
Assay in all cases: inhibition of tumour cell growth, NCI panel, 48 h
[1] = tested on: COLO 205
[2] = tested on: MDA-MB-435
[3] = tested on: DU-145
[4] = tested on: HL-60
[5] = tested on: TK-10
[6] = tested on: A498
[7] = tested on: K562
[8] = tested on: NCI-H23
[9] = tested on: SNB-19
[10] = tested on: PC-3
[11] = tested on: CCRF-CEM
[12] = tested on: Hs-578T
[13] = tested on: 786-0
[14] = tested on: UO-31
[15] = tested on: CAKI-1
[16] = tested on: LOX IMVI
[17] = tested on: OVCAR-8
[18] = tested on: MDA-MB-231
[19] = tested on: NCI-H460
[20] = tested on: KM12
[21] = tested on: RXF 393
[22] = tested on: HCT-15
[23] = tested on: SW-620
[24] = tested on: SK-OV-3
[25] = tested on: BT-549
[26] = tested on: MCF7
[27] = tested on: HCC 2998
[28] = tested on: SF-295
[29] = tested on: M14
[30] = tested on: RPMI-8226
[31] = tested on: MOLT-4
[32] = tested on: UACC-257
[33] = tested on: SR
[34] = tested on: SK-MEL-2
[35] = tested on: U-251
[36] = tested on: SNB-75
[37] = tested on: NCI-H226
[38] = tested on: HCT-116
[39] = tested on: SF-539
[40] = tested on: T47D
[41] = tested on: HOP-92
[42] = tested on: HOP-62
[43] = tested on: SK-MEL-28
[44] = tested on: OVCAR-4
[45] = tested on: HT-29
[46] = tested on: SF-268
[47] = tested on: NCI/ADR-RES
[48] = tested on: EKVX
[49] = tested on: IGROV-1
[50] = tested on: ACHN
[51] = tested on: UACC-62
[52] = tested on: SK-MEL-5

O=C(Nc1ccccc1)c1cc2c(cc1Cl)SC(NNCCO)=NS2(=O)=O
GI50 [1]: > 100 µM (inactive)
GI50 [2]: > 100 µM (inactive)
GI50 [3]: > 100 µM (inactive)
GI50 [4]: > 100 µM (inactive)
GI50 [5]: > 100 µM (inactive)
GI50 [6]: > 100 µM (inactive)
GI50 [7]: > 100 µM (inactive)
GI50 [8]: > 100 µM (inactive)
GI50 [9]: > 100 µM (inactive)
GI50 [10]: > 100 µM (inactive)
GI50 [11]: > 100 µM (inactive)
GI50 [12]: > 100 µM (inactive)
GI50 [13]: > 100 µM (inactive)
GI50 [14]: > 100 µM (inactive)
GI50 [15]: > 100 µM (inactive)
GI50 [16]: > 100 µM (inactive)
GI50 [17]: > 100 µM (inactive)
GI50 [18]: > 100 µM (inactive)
GI50 [19]: > 100 µM (inactive)
GI50 [20]: > 100 µM (inactive)
GI50 [21]: > 100 µM (inactive)
GI50 [22]: > 100 µM
GI50 [23]: > 100 µM (inactive)
GI50 [24]: > 100 µM (inactive)
GI50 [25]: > 100 µM (inactive)
GI50 [26]: > 100 µM (inactive)
GI50 [27]: > 100 µM (inactive)
GI50 [28]: > 100 µM (inactive)
GI50 [29]: > 100 µM (inactive)
GI50 [30]: > 100 µM (inactive)
GI50 [31]: > 100 µM (inactive)
GI50 [32]: > 100 µM (inactive)
GI50 [33]: > 100 µM (inactive)
GI50 [34]: > 100 µM (inactive)
GI50 [35]: > 100 µM (inactive)
GI50 [36]: 99.5 µM (inactive)
GI50 [37]: > 100 µM (inactive)
GI50 [38]: > 100 µM (inactive)
GI50 [39]: > 100 µM (inactive)
GI50 [40]: > 100 µM (inactive)
GI50 [41]: > 100 µM (inactive)
GI50 [42]: > 100 µM (inactive)
GI50 [43]: > 100 µM (inactive)
GI50 [44]: > 100 µM (inactive)
GI50 [45]: > 100 µM (inactive)
GI50 [46]: > 100 µM (inactive)
GI50 [47]: > 100 µM (inactive)
GI50 [48]: > 100 µM (inactive)
GI50 [49]: > 100 µM (inactive)
GI50 [50]: > 100 µM (inactive)
GI50 [51]: > 100 µM (inactive)
GI50 [52]: > 100 µM (inactive)
